Source: ChEMBL document CHEMBL1275376, “Development, validation, and use of quantitative structure-activity relationship models of 5-hydroxytryptamine (2B) receptor ligands to identify novel receptor binders and putative valvulopathic compounds among common drugs” (J Med Chem, 2010)
pEC50, pKi: −log10 of the molar value.

Molecular target: T1, 5-hydroxytryptamine receptor 2B (Homo sapiens, UniProt P41595)
Assay: Agonist at human 5HT2B receptor expressed in HEK293 cells assessed as induction of calcium influx by FLIPR assay
Assay type: functional, cell-based

T1 sequence (P41595 whole entry): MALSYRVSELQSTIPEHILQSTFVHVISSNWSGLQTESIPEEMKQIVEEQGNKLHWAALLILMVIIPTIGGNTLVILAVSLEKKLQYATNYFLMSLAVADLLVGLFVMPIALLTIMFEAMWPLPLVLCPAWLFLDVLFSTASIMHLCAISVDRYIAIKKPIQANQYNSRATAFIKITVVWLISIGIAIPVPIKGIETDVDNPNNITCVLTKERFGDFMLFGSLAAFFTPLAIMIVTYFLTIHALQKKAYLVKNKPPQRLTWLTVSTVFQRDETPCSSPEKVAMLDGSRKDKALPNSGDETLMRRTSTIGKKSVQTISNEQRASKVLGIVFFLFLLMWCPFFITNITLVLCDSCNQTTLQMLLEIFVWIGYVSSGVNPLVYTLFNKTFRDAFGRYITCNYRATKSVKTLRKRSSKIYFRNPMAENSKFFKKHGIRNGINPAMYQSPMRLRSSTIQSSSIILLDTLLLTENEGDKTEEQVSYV

Compound	pEC50
CC[C@@H](CO)NC(=O)[C@@H]1C=C2c3cccc4[nH]cc(c34)C[C@H]2N(C)C1 [METHYLERGONOVINE]	7.67

Molecular target: T1, 5-hydroxytryptamine receptor 2B
Assay: Displacement of [3H]LSD from human cloned 5HT2B receptor expressed in CHO cells by liquid scintillation counting
Assay type: cell-based

Compound	pKi
COc1ccc2[nH]cc(CN)c2c1	5.79
Cn1ccc2cc3c(cc21)CCN3C(=O)Nc1cccnc1	8.37
COc1cc2c(CCNC(C)=O)c[nH]c2cc1F	5.60
Fc1ccc(N2CCN(CCC3OCCc4ccccc43)CC2)cc1 (centres undefined)	7.16
COc1ccc2[nH]c3c(c2c1)CCNC3C (centres undefined) [ADRENOGLOMERULOTROPIN]	6.31
CC(NCCC(c1ccccc1)c1ccccc1)c1ccccc1 (centres undefined) [FENDILINE]	5.49
NC(=O)N1c2ccccc2CC(O)c2ccccc21 (centres undefined) [LICARBAZEPINE]	< 5.00
CC[C@@H](CO)NC(=O)[C@@H]1C=C2c3cccc4[nH]cc(c34)C[C@H]2N(C)C1 [METHYLERGONOVINE]	9.10
